Measurements published in ChEMBL document CHEMBL5046253, “Synthesis and bioevaluation of diaryl urea derivatives as potential antitumor agents for the treatment of human colorectal cancer” (Eur J Med Chem, 2022).
Activity calls are given as the source filed them. The rule behind the calls is not given here.

What was measured:
HCT-116 [1] = test: Antitumor activity against human HCT-116 cells xenografted in BALB/c nude mouse assessed as tumor growth inhibition at 20 mg/kg, iv administered for 19 days; format: functional; details: HCT-116, iv, 456 h, time 19 day, read-out: TGI
HCT-116 [2] = test: Antitumor activity against human HCT-116 cells xenografted in BALB/c nude mouse assessed as tumor size at 20 mg/kg, iv administered for 19 days (reference value: 1264.1+/-95.7 mm3); format: functional; details: time 19 day
Lung = test: Toxicity in BALB/c mouse assessed as effect on lungs by H and E staining based histological analysis; format: tissue-based; details: in vivo
Liver = test: Toxicity in BALB/c mouse assessed as effect on liver by H and E staining based histological analysis; format: tissue-based; details: in vivo
HCT-116 [3] = test: Induction of apoptosis in human HCT-116 cells assessed as viable cells at 10 uM incubated for 24 hrs by annexin V FITC/propidium iodide staining based flow cytometry (reference value: 81.2 %); format: functional; details: read-out: Activity
HCT-116 [4] = test: Antiproliferative activity against human HCT-116 cells assessed as reduction in cell viability incubated for 48 hrs by MTT assay; format: functional, cell-based; details: HCT-116, 48 h
[5] = target: Voltage-gated inwardly rectifying potassium channel KCNH2 (Homo sapiens, UniProt Q12809); test: Inhibition of human ERG transfected in CHO cells by automated patch method; format: toxicity, cell-based
HCT-116 [6] = test: Induction of apoptosis in human HCT-116 cells assessed as late apoptotic cells at 10 uM incubated for 24 hrs by annexin V FITC/propidium iodide staining based flow cytometry (reference value: 6.8 %); format: functional
[7] = Metabolic stability in Sprague-Dawley rat liver microsome; format: ADME; details: microsomes
NCI-H1975 = test: Antiproliferative activity against human NCI-H1975 cells harboring EGFR L858R/T790M double mutant assessed as reduction in cell viability incubated for 72 hrs by celltiter-glo assay; format: functional, cell-based; details: NCI-H1975, 72 h
[8] = Volume of distribution at steady state in Sprague-Dawley rat at 20 mg/kg, iv by LC-MS/MS analysis; format: ADME, organism-based; details: in vivo
[9] = AUC (0 to 72 hrs) in Sprague-Dawley rat at 20 mg/kg, iv by LC-MS/MS analysis; format: ADME, organism-based; parameters: time < 72 hr, route intravenous, dose 20 mg/kg; details: in vivo
HCT-116 [10] = test: Inhibition of cell migration in human HCT-116 cells at 1.5 uM measured after 24 hrs by wound healing assay (reference value: 31.16 %); format: functional
Cytochrome P450 3A4 = Cytochrome P450 3A4 (Homo sapiens, UniProt P08684); test: Inhibition of CYP3A4 (unknown origin); format: ADME
Mus musculus = test: Hyperglycemic activity in ICR mouse model assessed as effect on blood glucose level at 20 mg/kg, iv by glucometer; format: toxicity, organism-based; details: in vivo
HCT-116 [11] = test: Induction of apoptosis in human HCT-116 cells assessed as necrotic cells at 2.5 uM incubated for 24 hrs by annexin V FITC/propidium iodide staining based flow cytometry (reference value: 0.9 %); format: functional
HepG2 = test: Antiproliferative activity against human HepG2 cells assessed as reduction in cell viability incubated for 48 hrs by MTT assay; format: functional, cell-based; details: HepG2, 48 h
HCT-116 [12] = test: Induction of apoptosis in human HCT-116 cells assessed as necrotic cells at 10 uM incubated for 24 hrs by annexin V FITC/propidium iodide staining based flow cytometry (reference value: 0.9 %); format: functional
BaF3 = test: Antiproliferative activity against mouse BaF3 cells harboring EGFR L858R/T790M/C797S mutant assessed as reduction in cell viability incubated for 72 hrs by celltiter-glo assay; format: toxicity, cell-based; details: BaF3, 72 h
HCT-116 [13] = test: Induction of apoptosis in human HCT-116 cells assessed as early apoptotic cells at 10 uM incubated for 24 hrs by annexin V FITC/propidium iodide staining based flow cytometry (reference value: 11.1 %); format: functional
[14] = target: Phosphatidylinositol 4,5-bisphosphate 3-kinase catalytic subunit gamma isoform (Homo sapiens, UniProt P48736); test: Inhibition of PI3Kgamma (unknown origin) using PIP2 as substrate in presence of ATP incubated for 60 mins by ADP-glo based luminescence assay
Spleen = test: Toxicity in BALB/c mouse assessed as effect on spleen by H and E staining based histological analysis; format: tissue-based; details: in vivo
HCT-116 [15] = test: Inhibition of AKT phosphorylation at S473 residue in human HCT-116 cells at 10 uM after 24 hrs by Western blot analysis; format: cell-based
HCT-116 [16] = test: Inhibition of cell migration in human HCT-116 cells at 3 uM measured after 24 hrs by wound healing assay (reference value: 31.16 %); format: functional
[17] = target: Serine/threonine-protein kinase mTOR (Homo sapiens, UniProt P42345); test: Inhibition of mTOR (unknown origin) using U-Light-4E-BP1 peptide as a substrate in presence of ATP incubated for 45 mins by Lance ultra assay
Heart = test: Toxicity in BALB/c mouse assessed as effect on heart by H and E staining based histological analysis; format: tissue-based; details: in vivo
HCT-116 [18] = test: Induction of apoptosis in human HCT-116 cells assessed as necrotic cells at 5 uM incubated for 24 hrs by annexin V FITC/propidium iodide staining based flow cytometry (reference value: 0.9 %); format: functional
Cytochrome P450 2C19 = Cytochrome P450 2C19 (Homo sapiens, UniProt P33261); test: Inhibition of CYP2C19 (unknown origin); format: ADME
HCT-116 [19] = test: Induction of apoptosis in human HCT-116 cells assessed as early apoptotic cells at 5 uM incubated for 24 hrs by annexin V FITC/propidium iodide staining based flow cytometry (reference value: 11.1 %); format: functional

Chain of Phosphatidylinositol 4,5-bisphosphate 3-kinase catalytic subunit gamma isoform (P48736 whole entry, canonical isoform): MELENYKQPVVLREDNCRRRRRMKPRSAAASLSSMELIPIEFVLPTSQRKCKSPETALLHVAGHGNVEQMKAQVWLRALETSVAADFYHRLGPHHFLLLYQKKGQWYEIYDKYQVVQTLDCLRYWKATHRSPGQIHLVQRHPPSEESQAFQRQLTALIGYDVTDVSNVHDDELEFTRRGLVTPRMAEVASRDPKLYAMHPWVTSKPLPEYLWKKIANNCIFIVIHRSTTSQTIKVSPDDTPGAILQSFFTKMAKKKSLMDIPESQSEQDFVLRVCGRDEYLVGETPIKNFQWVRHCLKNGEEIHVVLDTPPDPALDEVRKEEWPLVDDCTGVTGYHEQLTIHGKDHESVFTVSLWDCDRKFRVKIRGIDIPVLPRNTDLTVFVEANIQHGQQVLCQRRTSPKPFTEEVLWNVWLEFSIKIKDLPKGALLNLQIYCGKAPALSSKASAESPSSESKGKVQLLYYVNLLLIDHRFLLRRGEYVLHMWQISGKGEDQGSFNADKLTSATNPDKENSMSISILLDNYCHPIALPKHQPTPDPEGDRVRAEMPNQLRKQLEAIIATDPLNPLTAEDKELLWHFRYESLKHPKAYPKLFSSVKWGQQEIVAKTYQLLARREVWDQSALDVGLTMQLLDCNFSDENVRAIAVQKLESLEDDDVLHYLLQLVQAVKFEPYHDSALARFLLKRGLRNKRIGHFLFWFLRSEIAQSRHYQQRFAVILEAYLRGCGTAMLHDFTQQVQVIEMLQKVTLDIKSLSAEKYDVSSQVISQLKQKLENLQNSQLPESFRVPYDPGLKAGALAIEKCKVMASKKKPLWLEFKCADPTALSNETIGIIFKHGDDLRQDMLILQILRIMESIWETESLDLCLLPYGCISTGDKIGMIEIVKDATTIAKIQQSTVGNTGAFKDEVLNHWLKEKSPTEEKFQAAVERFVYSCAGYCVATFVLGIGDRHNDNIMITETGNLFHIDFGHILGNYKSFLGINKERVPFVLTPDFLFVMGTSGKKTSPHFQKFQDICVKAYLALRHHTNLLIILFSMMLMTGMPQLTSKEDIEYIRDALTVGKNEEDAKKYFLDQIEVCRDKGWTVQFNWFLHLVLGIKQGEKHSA
Chain of Cytochrome P450 3A4 (P08684 whole entry): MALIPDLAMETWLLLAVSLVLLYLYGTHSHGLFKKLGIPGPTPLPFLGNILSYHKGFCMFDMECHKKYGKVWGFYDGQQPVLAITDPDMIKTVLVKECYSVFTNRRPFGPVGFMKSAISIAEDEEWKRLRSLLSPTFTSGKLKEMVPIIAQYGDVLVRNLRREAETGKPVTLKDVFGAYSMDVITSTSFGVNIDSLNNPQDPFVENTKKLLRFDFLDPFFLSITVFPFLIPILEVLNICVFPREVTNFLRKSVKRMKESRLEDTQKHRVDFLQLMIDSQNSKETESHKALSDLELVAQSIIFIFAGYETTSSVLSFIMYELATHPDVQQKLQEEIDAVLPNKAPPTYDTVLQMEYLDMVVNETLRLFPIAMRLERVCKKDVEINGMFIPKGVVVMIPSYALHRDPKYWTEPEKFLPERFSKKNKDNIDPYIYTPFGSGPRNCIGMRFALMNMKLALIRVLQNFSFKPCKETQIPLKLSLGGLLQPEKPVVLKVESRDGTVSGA
Chain of Voltage-gated inwardly rectifying potassium channel KCNH2 (Q12809 whole entry): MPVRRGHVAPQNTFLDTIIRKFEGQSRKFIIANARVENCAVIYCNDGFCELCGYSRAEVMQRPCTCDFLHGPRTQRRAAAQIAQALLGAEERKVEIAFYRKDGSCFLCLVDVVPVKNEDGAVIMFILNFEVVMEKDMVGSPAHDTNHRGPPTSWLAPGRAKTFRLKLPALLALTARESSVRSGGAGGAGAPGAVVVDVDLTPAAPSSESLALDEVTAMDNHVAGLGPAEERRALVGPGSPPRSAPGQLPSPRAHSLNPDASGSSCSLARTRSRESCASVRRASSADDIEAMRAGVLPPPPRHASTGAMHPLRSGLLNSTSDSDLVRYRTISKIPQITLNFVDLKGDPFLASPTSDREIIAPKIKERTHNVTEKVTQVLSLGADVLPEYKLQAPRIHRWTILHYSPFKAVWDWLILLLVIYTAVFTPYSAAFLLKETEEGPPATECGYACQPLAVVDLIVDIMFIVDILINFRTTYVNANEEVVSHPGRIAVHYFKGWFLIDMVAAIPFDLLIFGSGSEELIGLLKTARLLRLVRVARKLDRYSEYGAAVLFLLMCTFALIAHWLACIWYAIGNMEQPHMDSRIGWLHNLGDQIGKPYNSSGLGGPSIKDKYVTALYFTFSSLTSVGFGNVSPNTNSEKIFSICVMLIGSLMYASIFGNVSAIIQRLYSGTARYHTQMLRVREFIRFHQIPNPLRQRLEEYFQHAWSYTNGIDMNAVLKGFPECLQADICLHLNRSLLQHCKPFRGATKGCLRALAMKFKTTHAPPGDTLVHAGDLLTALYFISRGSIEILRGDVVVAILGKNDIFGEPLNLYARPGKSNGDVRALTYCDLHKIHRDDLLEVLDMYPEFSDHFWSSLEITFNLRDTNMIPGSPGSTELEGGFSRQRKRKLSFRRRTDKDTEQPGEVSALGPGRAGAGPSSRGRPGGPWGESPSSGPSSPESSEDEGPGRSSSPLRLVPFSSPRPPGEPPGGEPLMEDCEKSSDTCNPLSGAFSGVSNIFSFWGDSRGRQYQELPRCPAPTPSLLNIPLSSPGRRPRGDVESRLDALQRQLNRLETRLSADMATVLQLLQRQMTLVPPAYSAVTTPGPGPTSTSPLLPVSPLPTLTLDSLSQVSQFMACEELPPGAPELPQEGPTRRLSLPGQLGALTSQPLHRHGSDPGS
Chain of Cytochrome P450 2C19 (P33261 whole entry): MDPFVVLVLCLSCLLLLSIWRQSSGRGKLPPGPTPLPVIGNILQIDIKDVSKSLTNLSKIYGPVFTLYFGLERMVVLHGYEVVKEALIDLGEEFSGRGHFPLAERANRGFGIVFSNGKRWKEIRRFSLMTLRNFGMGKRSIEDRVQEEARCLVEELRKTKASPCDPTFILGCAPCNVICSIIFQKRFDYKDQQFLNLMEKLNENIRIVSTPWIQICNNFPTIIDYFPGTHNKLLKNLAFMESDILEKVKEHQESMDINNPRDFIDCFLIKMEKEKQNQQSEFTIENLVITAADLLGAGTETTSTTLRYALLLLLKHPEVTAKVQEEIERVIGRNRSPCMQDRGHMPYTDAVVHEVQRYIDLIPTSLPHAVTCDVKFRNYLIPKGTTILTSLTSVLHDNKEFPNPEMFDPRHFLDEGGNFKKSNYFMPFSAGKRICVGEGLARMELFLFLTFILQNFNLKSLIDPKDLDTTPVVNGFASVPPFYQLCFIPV

- IC50 (HCT-116 [4]): 0.11 µM
- Stability [7]: Stable
- IC50 (NCI-H1975): 0.217 µM
- Vdss [8]: 17.9 L/kg
- AUC(0-t) at 72 h [9]: 29.9 µg·h/mL
- IC50 (Cytochrome P450 3A4): > 50 µM
- IC50 (HepG2): 15.1 µM
- IC50 [14]: 0.0087 µM
- IC50 [17]: 0.0033 µM
- IC50 (Cytochrome P450 2C19): > 50 µM
Compound: NC(=O)[C@@H]1CCCN1C(=O)c1ccc(NC(=O)Nc2ccc(-c3nc(N4CCOCC4)nc(N4CCOCC4)n3)cc2)cc1
- inhibition in vivo at 20 mg/kg (HCT-116 [1]): 41.6%
- Activity (HCT-116 [2]): 796.2 mm3
- Activity (Lung): Non-Toxic
- Activity (Liver): Non-Toxic
- viability at 10 µM (HCT-116 [3]): 63.1%
- IC50 [5]: > 30 µM
- Activity (HCT-116 [6]): 10.3%
- inhibition at 1.5 µM (HCT-116 [10]): 12.2%
- Activity (Mus musculus): Non-Toxic
- Activity (HCT-116 [11]): 2.2%
- Activity (HCT-116 [12]): 1.7%
- IC50 (BaF3): 0.217 µM
- Activity (HCT-116 [13]): 24.9%
- Activity (Spleen): Non-Toxic
- inhibition (HCT-116 [15]): Active
- inhibition at 3 µM (HCT-116 [16]): 9.72%
- Activity (Heart): Non-Toxic
- Activity (HCT-116 [18]): 1.79%
- Activity (HCT-116 [19]): 13.3%
